Values of other authors, collected in patent publication US12083128B2, “Use of medications with neuroprotective properties to prevent or reduce the risk of ischemia-reperfusion injury in a subject” (priority 2015, dated 2024).
Like-named read-outs stand apart in the source and are kept apart here.

Tests used:
retinal gangion cells [1] = settings: in vivo, animals; cited from earlier work
retinal gangion cells [2] = settings: in vitro; cited from earlier work
optic nerve blood flow = settings: animal models; cited from earlier work
[3] = tested on: endothelin 1 induced ischemic retinal injury; settings: daily topical administration, animals; cited from earlier work
[4] = intravitreal injections for AMD, 49 eyes followed for 12 months; cited from earlier work

| Compound | protection of retinal ganglion cells from apoptosis (retinal gangion cells [1]) | protection of retinal ganglion cells from apoptosis (retinal gangion cells [2]) | optic nerve blood flow (optic nerve blood flow) | RNFL thickness in treated eyes [3] | protection against endothelin 1 induced ischemic retinal injury [3] | RNFL thinning [4] |
| --- | --- | --- | --- | --- | --- | --- |
| CC(C)OC(=O)CCC/C=C\C[C@@H]1[C@@H](/C=C/C(F)(F)COc2ccccc2)[C@H](O)C[C@@H]1O [tafluprost] | protects retinal gangion cells from apoptosis | protects retinal gangion cells from apoptosis | improved optic nerve blood flow | thicker in treated eyes | protective | – |
| Ranibizumab | – | – | – | – | – | caused significant RNFL thinning |
